Data as given in US8133991B2, “Allergen inactivating agent” (Kao Corporation, priority 2002, dated 2012).

Assays:
[1] = system: Cat epithelium; test: Quidel Allergen Screen: reactivity of immobilized allergen with allergy patient IgE; type: biochemical; conditions: 1% sample, 100 μL/stick, room temperature 2 hours; distilled water control = 0
Excerpt: (§1) Quidel Allergen Screen (manufactured by Xenith Biomed) which is a reagent for detecting antigen-specific IgE antibody by using enzyme-labeled anti-IgE antibody was used to measure the reactivity between the allergen (house dust, Dermatophagoides farinae, Dermatophagoides pteronyssinus, cat epidermis, Cryptomeria japonica, ragweed, and the like) immobilized on a dip stick and the IgE antibody from the allergy patient by the procedure as described below.
(§2) The allergen stick was placed in a wetting box with the pad side facing upward, and the stick was impregnated with the product of the present invention adjusted to 1% at an amount of 100 μL/stick and left at room temperature for 2 hours. Each pad was washed evenly for 30 seconds with physiological saline in a washing bottle, and 50 μL/stick of the serum collected from an allergy patient was added dropwise to the pad and the serum was evenly spread. The wetting box was covered with lid and allowed to stand for 18 hours at room temperature. After the completion of the reaction, the pad was washed evenly for 20 seconds by the physiological saline in a washing bottle.
(§3) About 1 mL of enzyme-labeled anti-IgE antibody was placed in a test tube, and allergen stick is placed in the test tube with the pad facing downward after washing the allergen stick and shaking off the excess water, and the reaction was allowed to take place at room temperature for 30 minutes. After the termination of the reaction, each pad was evenly washed with tap water for 2 minutes. At this occasion, disappearance of the red color on the pad was confirmed. About 1 mL of the substrate solution was poured into test tube, and allergen stick was placed in the test tube with the pad facing downward after washing the allergen stick and shaking off the excess water, and the reaction was allowed to take place at room temperature for 30 minutes. After the completion of the reaction, reaction was terminated by absorbing the water impregnated in the pad with a paper towel by gently patting the pad with the paper towel from the rear side of the pad. Next, intensity of the blue color developed was measured with an image analyzer, and decrease in the reactivity by the product of the present invention was calculated by the following equation by using the color intensity attained when the IgE from allergy patient was used with distilled water treatment for the control.
(§4) Allergen inactivation effect (%)=100−{(IgE reaction intensity when treated by the product of the present invention)−(reaction intensity of the negative control)}/{(IgE reaction intensity of the control treated by distilled water)−(reaction intensity of the negative control)×100

[2] = system: House dust 1; test: as above; type: biochemical; conditions: 1% sample, 100 μL/stick, room temperature 2 hours; distilled water control = 0
Excerpt: as §1, §2, §3, §4

[3] = system: Dermatophagoides farinae; test: as above; type: biochemical; conditions: 1% sample, 100 μL/stick, room temperature 2 hours; distilled water control = 0
Excerpt: as §1, §2, §3, §4

[4] = system: Dermatophagoides pteronyssinus; test: as above; type: biochemical; conditions: 1% sample, 100 μL/stick, room temperature 2 hours; distilled water control = 0
Excerpt: as §1, §2, §3, §4

[5] = molecular target: T1, Dermatophagoides allergen Derf2 (Dermatophagoides farinae, UniProt Q00855); test: Derf2 sandwich ELISA of mite extract after treatment with sample; type: biochemical; conditions: 1% sample solution mixed 1:1 with 0.5 mg/mL mite extract, room temperature 2 hours; distilled water control = 1; lower = more inactivation
T1 construct: purchased Torii Pharmaceutical Co., Ltd; host or cells: mite extract (natural allergen extract)
T1 sequence (Q00855 18-146): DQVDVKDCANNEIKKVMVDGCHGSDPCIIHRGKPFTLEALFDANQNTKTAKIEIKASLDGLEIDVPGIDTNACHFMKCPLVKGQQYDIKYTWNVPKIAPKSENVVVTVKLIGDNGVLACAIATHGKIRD
Protocol: (1) The polysaccharide derivative of the present invention was dissolved in distilled water to prepare 1% solution. Quantity of Dermatophagoides allergen was measured as a typical allergen in the indoor environment by sandwich ELISA using a mouse monoclonal antibody. More specifically, quantity of Dermatophagoides allergen Derf2 was measured by using Derf2 antibody and a labeled antibody manufactured by Asahi Brewery, Ltd.
The allergen inactivation effect is indicated in terms of the ratio in relation to the control wherein the sample was treated in the same way except for the use of distilled water, namely, by assuming the Derf2 quantity in the control as 1.
(2) Scratch extract “mite” (manufactured by Torii Pharmaceutical Co., Ltd.) was placed in a dialysis tube, and dialyzed overnight in 10% PBS (4° C.) to remove glycerol in the extract. […] Quantity of Derf2 in the reaction solution was determined by using anti-Derf2 monoclonal antibody (15E11) and HRP-labeled anti-Derf2 monoclonal antibody (13A4) manufactured by Asahi Brewery, Ltd. in accordance with the protocol attached with the product, and using Derf2 for the Derf2 antigen for depicting the calibration curve.
Quantity of the Derf2 treated with various samples was calculated in relation to the quantity of Derf2 treated with the distilled water, which was assumed to be 1.

[6] = system: Ceder; test: Quidel Allergen Screen: reactivity of immobilized allergen with allergy patient IgE; type: biochemical, Cryptomeria japonica; conditions: 1% sample, 100 μL/stick, room temperature 2 hours; distilled water control = 0
Excerpt: as §1
The allergen stick was placed in a wetting box with the pad side facing upward, and the stick was impregnated with the product of the present invention adjusted to 1% at an amount of 100 μL/stick and left at room temperature for 2 hours. […]
About 1 mL of enzyme-labeled anti-IgE antibody was placed in a test tube, and allergen stick is placed in the test tube with the pad facing downward after washing the allergen stick and shaking off the excess water, and the reaction was allowed to take place at room temperature for 30 minutes. […] Next, intensity of the blue color developed was measured with an image analyzer, and decrease in the reactivity by the product of the present invention was calculated by the following equation by using the color intensity attained when the IgE from allergy patient was used with distilled water treatment for the control. […]

## O=C(OC[C@H]1O[C@@H](OC(=O)c2cc(O)c(O)c(OC(=O)c3cc(O)c(O)c(O)c3)c2)[C@H](OC(=O)c2cc(O)c(O)c(OC(=O)c3cc(O)c(O)c(O)c3)c2)[C@@H](OC(=O)c2cc(O)c(O)c(OC(=O)c3cc(O)c(O)c(O)c3)c2)[C@@H]1OC(=O)c1cc(O)c(O)c(OC(=O)c2cc(O)c(O)c(O)c2)c1)c1cc(O)c(O)c(OC(=O)c2cc(O)c(O)c(O)c2)c1 [Tannic acid]
[1]
  Allergen inactivating effect (%) <Animal allergen> Cat epithelium: 92%
[2]
  Allergen inactivating effect (%) <Animal allergen> House dust 1: 83%
[3]
  Allergen inactivating effect (%) <Animal allergen> Dermatophagoides farinae: 62%
[4]
  Allergen inactivating effect (%) <Animal allergen> Dermatophagoides pteronyssinus: 70%
[5]
  Quantity of Derf2 (Ratio to the control): 0.2
[6]
  Allergen inactivating effect (%) <Plant allergen> Ceder: 78%
